Each structure is given as a SMILES string. Read-outs that look alike come from different tables or passages of the source.

Usually IC50 stands for the concentration at which inhibition is half-maximal. The low end stands for greater potency, the high end for weaker potency. Usually EC50 stands for the concentration that produces a half-maximal response.

In one assay the target is human KHK-C (Homo sapiens (Human), UniProt P50053). Description: KHK Biochemical Assay (IC50), ADP-Glo, KHK-C. Conditions: average of at least two separate assays. The method in brief:
(§1)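 His-tagged enzyme expressed in BL21 (DE3), Ni-NTA purified. Compounds, serially diluted 1:3 in DMSO, pre-incubated 30 min with enzyme in 50 mM Hepes pH 7.4, 140 mM KCl, 5 mM MgCl2, 0.01% Triton-X, then ATP and fructose added; 4 h at room temperature. ADP formation read by ADP-Glo luminescence.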
For orientation: In ADP-Glo the light output rises with the ADP produced.

Assay [1] concerns the target KHK-C expressed in NRK-52E cells (Homo sapiens (Human), UniProt P50053). Description: KHK-C Cell-based Assay (EC50), NRK CTG, fructose-mediated ATP-depletion.
A further assay deals with human KHK-A (Homo sapiens (Human), UniProt P50053). Description: KHK Biochemical Assay (IC50), ADP-Glo, KHK-A. Conditions: average of at least two separate assays. Put shortly: as §1
Chain of human KHK-A (P50053 other isoform, or with tags, fused parts or gaps): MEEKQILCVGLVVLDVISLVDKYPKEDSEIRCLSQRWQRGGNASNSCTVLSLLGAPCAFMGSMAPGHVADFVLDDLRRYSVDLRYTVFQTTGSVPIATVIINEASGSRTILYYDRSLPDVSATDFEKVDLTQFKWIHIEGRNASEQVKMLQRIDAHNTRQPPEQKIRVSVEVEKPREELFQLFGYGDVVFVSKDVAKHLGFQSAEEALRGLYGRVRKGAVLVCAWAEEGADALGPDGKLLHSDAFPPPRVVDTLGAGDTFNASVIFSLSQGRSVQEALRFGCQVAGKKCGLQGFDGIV
A further assay has as its system HepG2 cells. Description: F1P Cell-Based Assay (EC50), 13C6-fructose-1-phosphate in HepG2 cells (cell culture medium or 50% human plasma). The following applies: Homo sapiens.
[2] abbreviates: HepG2, HepG2 cells, 50% human plasma, read-out: F1P 50% HP EC50.
The mark [3] stands for this setting: HepG2, read-out: F1P 10% FBS EC50, HepG2 cells, cell culture medium (10% FBS).

Chain of human KHK-C (P50053 whole entry): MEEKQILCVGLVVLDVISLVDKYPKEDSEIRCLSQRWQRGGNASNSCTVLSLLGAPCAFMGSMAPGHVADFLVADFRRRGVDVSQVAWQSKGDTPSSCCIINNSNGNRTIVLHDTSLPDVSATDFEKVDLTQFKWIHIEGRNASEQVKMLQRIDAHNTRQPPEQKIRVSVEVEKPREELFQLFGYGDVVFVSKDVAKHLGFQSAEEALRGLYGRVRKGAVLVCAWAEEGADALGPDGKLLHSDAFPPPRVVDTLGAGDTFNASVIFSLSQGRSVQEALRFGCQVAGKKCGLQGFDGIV
Chain of KHK-C expressed in NRK-52E cells (P50053 whole entry): as above

With `C[C@@H](NS(C)(=O)=O)c1cccc(-c2nc(N3CC[C@@H]3C)nc3c2CCC3(F)F)c1` [Example 749, N-[(1R)-1-[3-[7,7-difluoro-2-[(2S)-2-methylazetidin-1-yl]-5,6-dihydrocyclopenta[d]pyrimidin-4-yl]phenyl]ethyl]methanesulfonamide], the concentration for half-maximal inhibition (IC50) at human KHK-C is 18.8 nM. This compound also registered a concentration giving a half-maximal response (EC50) in assay [1] of 69.7 nM.
The matching figures for `CN1C(=O)N[C@]2(CCc3cc(-c4nc(N5CC[C@@H]5CF)nc5c4CCC5(F)F)ccc32)C1=O` [Example 676, (5S)-5′-[7,7-difluoro-2-[(2R)-2-(fluoromethyl)azetidin-1-yl]-5,6-dihydroeyelopenta[d]pyrimidin-4-yl]-3-methyl-spiro[imidazolidine-5,1′-indane]-2,4-dione]: 0.2 nM and 1.2 nM.
In turn, `C[C@H]1CCN1c1nc2c(c(-c3ccc4cnccc4c3)n1)CCC2` [Example 163, (S)-6-(2-(2-methylazetidin-1-yl)-6,7-dihydro-5H-cyclopenta[d]pyrimidin-4-yl)isoquinoline] came in with a concentration for half-maximal inhibition (IC50) on human KHK-C (ADP-Glo) of 49 nM. Moreover, the concentration for a half-maximal effect (EC50) in assay [1] came out at 251 nM.
Compound `C[C@H]1[C@H](O)CN1c1nc(-c2ccc3c(c2)C(=O)N(C)CC3)c2c(n1)C(F)(F)CC2` [Example 600, 7-(7,7-difluoro-2-((2S,3R)-3-hydroxy-2-methylazetidin-1-yl)-6,7-dihydro-5H-cyclopenta[d]pyrimidin-4-yl)-2-methyl-3,4-dihydroisoquinolin-1(2H)-one] came in with an IC50 against human KHK-C of 13.6 nM. For the same compound, a half-maximal effect in assay [1] (EC50) was put at 125 nM.
The compound `C[C@H]1[C@H](O)CN1c1nc2c(c(-c3cccc(CNS(=O)(=O)C4CC4)c3)n1)CCC2` [Example 610] came in with an IC50 on human KHK-C of 80.7 nM. The compound also showed a half-maximal effective concentration (EC50) in assay [1] of 610 nM.
The compound `NC(=O)c1ccc(-c2nc(N3CCC34COC4)nc3c2CCC3)cc1` [Example 730, 4-(2-(6-oxa-1-azaspiro[3.3]heptan-1-yl)-6,7-dihydro-5H-cyclopenta[d]pyrimidin-4-yl)benzamide] came in with a concentration for half-maximal inhibition (IC50) on human KHK-C of 2390 nM. In addition, the half-maximal effective concentration (EC50) in assay [1] came to 5000 nM.
Take `NC(=O)c1ccc(-c2nc(N3Cc4n[nH]cc4C3CO)nc3c2CCC3)cc1` (centres unmarked) [Example 172, 4-(2-(4-(hydroxymethyl)-2,6-dihydropyrrolo[3,4-c]pyrazol-5(4H)-yl)-6,7-dihydro-5H-cyclopenta[d]pyrimidin-4-yl)benzamide]: the IC50 at human KHK-C (ADP-Glo) was greater than 5000 nM. This compound also displayed a 50% effective concentration (EC50) in assay [1] greater than 5000 nM.
`C[C@H]1CCN1c1nc2c(c(-c3ccc4nc(N)sc4c3)n1)CCC2` [Example 734, (S)-6-(2-(2-methylazetidin-1-yl)-6,7-dihydro-5H-cyclopenta[d]pyrimidin-4-yl)benzo[d]thiazol-2-amine] came in with a concentration for half-maximal inhibition (IC50) against human KHK-C of 72.3 nM. The same compound gave an EC50 in assay [1] of 91.1 nM.
Turning to `C[C@H]1CNC(=O)c2ccc(-c3nc(N4C[C@@H](O)[C@@H]4C)nc4c3CCC4(F)F)cc2O1` [Example 87], inhibition at human KHK-C (ADP-Glo) was half-maximal at 3.4 nM (IC50). This compound had an EC50 in assay [1] of 46 nM.
As for `C[C@H]1CCN1c1nc2c(c(-c3cccc(C4(O)CS(=O)(=O)C4)c3)n1)CCC2` [Example 397, (S)-3-hydroxy-3-(3-(2-(2-methylazetidin-1-yl)-6,7-dihydro-5H-cyclopenta[d]pyrimidin-4-yl)phenyl)thietane 1,1-dioxide], the concentration for half-maximal inhibition (IC50) at human KHK-C was 32.8 nM. In assay [1], this compound had an EC50 of 166 nM.
`C[C@H]1CCN1c1nc2c(c(-c3cn(C4CC4)nn3)n1)CCC2` [Example 644, 4-(1-cyclopropyltriazol-4-yl)-2-[(2S)-2-methylazetidin-1-yl]-6,7-dihydro-5H-cyclopenta[d]pyrimidine]: in assay [1], the EC50 is 709 nM.
Still for that read-out and setting: the value for `C[C@H]1[C@H](F)CN1c1nc2c(c(-c3cccc(CN)c3)n1)CCC2` [Example 352, [3-[2-[(2S,3R)-3-fluoro-2-methyl-azetidin-1-yl]-6,7-dihydro-5H-cyclopenta[d]pyrimidin-4-yl]phenyl]methanamine] was 201 nM.
The compound `C[C@H]1[C@H](O)CN1c1nc(-c2ccc3c(c2)CNCC3)c2c(n1)C(F)(F)CC2` [Example 612, (2S,3R)-1-(7,7-difluoro-4-(1,2,3,4-tetrahydroisoquinolin-7-yl)-6,7-dihydro-5H-cyclopenta[d]pyrimidin-2-yl)-2-methylazetidin-3-ol] displayed an EC50 in assay [1] of 32.5 nM.
Turning to `C[C@H]1CCN1c1nc(-c2ccc([C@H](N)C(F)F)cc2)c2c(n1)C(F)(F)CC2` [Example 650, (1S)-1-[4-[7,7-difluoro-2-[(2S)-2-methylazetidin-1-yl]-5,6-dihydrocyclopenta[d]pyrimidin-4-yl]phenyl]-2,2-difluoro-ethanamine], the EC50 in assay [1] is 39.1 nM.
Same read-out and setting: then `C[C@H]1[C@H](F)CN1c1nc2c(c(-c3ccc4c(c3)C(=O)N(C)C4)n1)CCC2` [Example 203, 6-[2-[(2S,3R)-3-fluoro-2-methyl-azetidin-1-yl]-6,7-dihydro-5H-cyclopenta[d]pyrimidin-4-yl]-2-methyl-isoindolin-1-one], with 59.5 nM; and `C[C@H]1CCN1c1nc(-c2cccc(C(N)=O)c2)c2c(n1)C1CC1C2` (stereo partly drawn) [Example 272, 3-(2-((S)-2-methylazetidin-1-yl)-5,5a,6,6a-tetrahydrocyclopropa[4,5]cyclopenta[1,2-d]pyrimidin-4-yl)benzamide], with 635 nM.
Same read-out and setting: then `C[C@H]1CCN1c1nc2c(c(-c3nc4ccccc4[nH]3)n1)CCC2` [Example 389, 2-[2-[(2S)-2-methylazetidin-1-yl]-6,7-dihydro-5H-cyclopenta[d]pyrimidin-4-yl]-1H-benzimidazole], with 217 nM; and `C[C@H]1CCN1c1nc(-c2ccc(C(N)=O)cc2)c2cn[nH]c2n1` [Example 401, (S)-4-(6-(2-methylazetidin-1-yl)-1H-pyrazolo[3,4-d]pyrimidin-4-yl)benzamide], with greater than 5000 nM.
Same read-out and setting: the value for `C[C@H]1CCN1c1nc2c(c(-c3cccc(C4CCS(=O)(=O)N4)c3)n1)CCC2` (stereo partly drawn) [Example 606, 3-(3-(2-((S)-2-methylazetidin-1-yl)-6,7-dihydro-5H-cyclopenta[d]pyrimidin-4-yl)phenyl)isothiazolidine 1,1-dioxide] was 37.5 nM.
Take `CS(=O)(=O)N[C@H]1COc2cc(-c3nc(N4CC[C@@H]4C(F)F)nc4c3CCC4(F)F)ccc21` [Example 545, N—((R)-6-(2-((R)-2-(difluoromethyl)azetidin-1-yl)-7,7-difluoro-6,7-dihydro-5H-cyclopenta[d]pyrimidin-4-yl)-2,3-dihydrobenzofuran-3-yl)methanesulfonamide]: the IC50 at human KHK-C came to 1 nM; on human KHK-A, 4 nM. Further, the half-maximal effective concentration (EC50) in the assay on HepG2 cells (setting [2]) was determined as 24.7 nM; with HepG2 cells (setting [3]), 2.4 nM.
As for `C[C@H]1[C@H](CO)CN1c1nc2c(c(-c3ccc(C(N)=O)cc3)n1)CCC2` (racemic) [Example 267, (rac)-4-(2-((2S*,3R*)-3-(hydroxymethyl)-2-methylazetidin-1-yl)-6,7-dihydro-5H-cyclopenta[d]pyrimidin-4-yl)benzamide], the EC50 in assay [1] is greater than 5000 nM.
`C[C@H]1[C@H](O)CN1c1nc(-c2ccc3c(c2)CC[C@]32NC(=O)NC2=O)c2c(n1)C(F)(F)CC2` [Example 486, (S)-5′-(7,7-difluoro-2-((2S,3R)-3-hydroxy-2-methylazetidin-1-yl)-6,7-dihydro-5H-cyclopenta[d]pyrimidin-4-yl)-2′,3′-dihydrospiro[imidazolidine-4,1′-indene]-2,5-dione]: the IC50 against human KHK-C was 0.2 nM; on human KHK-A, 1.7 nM. Moreover, the 50% effective concentration (EC50) turned out to be 8.3 nM in the assay with HepG2 cells (setting [2]) and 6 nM in the assay on HepG2 cells (setting [3]).
In assay [1], `C[C@H]1CCN1c1nc2c(c(-c3ccc4c(c3)CN(S(=O)(=O)CC#N)CC4)n1)CCC2` [Example 604, (S)-2-((7-(2-(2-methylazetidin-1-yl)-6,7-dihydro-5H-cyclopenta[d]pyrimidin-4-yl)-3,4-dihydroisoquinolin-2(1H)-yl)sulfonyl)acetonitrile] returned a concentration giving a half-maximal response (EC50) of 164 nM.
In assay [1], `C[C@H]1CCN1c1nc2c(c(-c3ccc(C4(NS(C)(=O)=O)CC4)cc3)n1)CCC2` [Example 306, (S)—N-(1-(4-(2-(2-methylazetidin-1-yl)-6,7-dihydro-5H-cyclopenta[d]pyrimidin-4-yl)phenyl)cyclopropyl)methanesulfonamide] came in with a concentration for a half-maximal effect (EC50) of 450 nM.
On the same count and under the same terms, then `C[C@H]1CCN1c1nc2c(c(-c3ccc4c(c3)C(=O)N(C)C4)n1)CCC2` [Example 206, 2-methyl-6-[2-[(2S)-2-methylazetidin-1-yl]-6,7-dihydro-5H-cyclopenta[d]pyrimidin-4-yl]isoindolin-1-one], with 26.6 nM.
As to `C[C@H]1[C@H](O)CN1c1nc(-c2cc(F)c3c(c2)CCC3NS(C)(=O)=O)c2c(n1)C(F)(F)CC2` (stereo partly drawn) [Example 525, N-(5-(7,7-difluoro-2-((2S,3R)-3-hydroxy-2-methylazetidin-1-yl)-6,7-dihydro-5H-cyclopenta[d]pyrimidin-4-yl)-7-fluoro-2,3-dihydro-1H-inden-1-yl)methanesulfonamide], the IC50 on human KHK-C came to 1.8 nM; at human KHK-A it was 29.8 nM. In addition, the values for the half-maximal effective concentration (EC50) in the assay with HepG2 cells (setting [2]) and with HepG2 cells (setting [3]) were 86.6 nM and 32.5 nM, respectively.
In turn, `C[C@H]1CCN1c1nc2c(c(-c3ccc(CNS(C)(=O)=O)cc3)n1)CCC2` [Example 361, N-[[4-[2-[(2S)-2-methylazetidin-1-yl]-6,7-dihydro-5H-cyclopenta[d]pyrimidin-4-yl]phenyl]methyl]methanesulfonamide] yielded a 50% effective concentration (EC50) in assay [1] of 65.7 nM.
In assay [1], `C[C@H]1CCN1c1nc2c(c(-c3cn(CCO)nn3)n1)CCC2` [Example 645, 2-[4-[2-[(2S)-2-methylazetidin-1-yl]-6,7-dihydro-5H-cyclopenta[d]pyrimidin-4-yl]triazol-1-yl]ethanol] returned an EC50 of 399 nM.

The values above are taken from patent publication US12410160B2 (Gilead Sciences, Inc., priority 2021, dated 2025).
